We go through 4 molecules from patent publication US6451802B1, “S-oxide lipid lowering compounds” (Janssen Pharmaceutica N.V., priority 1998, dated 2002).

One data set addresses T1, Dog MTP (Canis lupus familiaris, UniProt A0A8I3S8Z7).
T1 sequence (A0A8I3S8Z7 18-893): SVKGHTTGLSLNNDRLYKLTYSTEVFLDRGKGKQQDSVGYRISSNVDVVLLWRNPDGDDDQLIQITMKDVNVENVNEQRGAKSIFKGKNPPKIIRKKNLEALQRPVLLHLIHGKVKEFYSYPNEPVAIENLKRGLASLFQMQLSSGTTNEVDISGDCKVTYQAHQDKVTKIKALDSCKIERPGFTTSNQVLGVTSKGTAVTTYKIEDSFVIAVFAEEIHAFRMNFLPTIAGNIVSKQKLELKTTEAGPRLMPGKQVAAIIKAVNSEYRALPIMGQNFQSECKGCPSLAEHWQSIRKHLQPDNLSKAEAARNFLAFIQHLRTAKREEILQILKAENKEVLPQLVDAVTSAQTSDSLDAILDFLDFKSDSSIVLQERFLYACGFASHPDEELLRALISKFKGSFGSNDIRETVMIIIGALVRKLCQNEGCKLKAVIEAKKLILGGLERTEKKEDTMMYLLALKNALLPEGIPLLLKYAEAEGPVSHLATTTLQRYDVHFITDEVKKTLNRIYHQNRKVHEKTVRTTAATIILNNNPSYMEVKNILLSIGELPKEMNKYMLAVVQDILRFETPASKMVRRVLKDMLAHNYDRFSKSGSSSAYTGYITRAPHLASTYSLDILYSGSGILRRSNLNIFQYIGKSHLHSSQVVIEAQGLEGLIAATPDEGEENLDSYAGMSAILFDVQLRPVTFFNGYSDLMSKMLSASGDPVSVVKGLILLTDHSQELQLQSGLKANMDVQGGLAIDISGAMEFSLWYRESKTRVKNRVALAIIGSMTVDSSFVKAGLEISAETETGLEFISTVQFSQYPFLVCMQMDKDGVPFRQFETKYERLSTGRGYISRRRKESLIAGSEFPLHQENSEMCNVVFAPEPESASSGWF
Nature of the data set: MTP assay (triglyceride transfer from donor to acceptor vesicles). Particulars: drug concentration that corresponds with 50% of control values. The class given is biochemical. The method, then: MTP activity was measured using an assay similar to one described by J. R. Wetterau and D. B. Zilversmit in Chemistry and Physics of Lipids, 38, 205-222 (1985). To prepare the donor and acceptor vesicles, the appropriate lipids in chloroform were put into a glass test tube and dried under a stream of N2. A buffer containing 15 mM Tris-HCl pH 7.5, 1 mM EDTA, 40 mM NaCl, 0.02% NaN3 (assay buffer) was added to the dried lipid. The mixture was vortexed briefly and the lipids were then allowed to hydrate for 20 min on ice. Vesicles were then prepared by bath sonication (Branson 2200) at room temperature for maximum 15 min. Butylated hydroxytoluene was included in all vesicle preparations at a concentration of 0.1%. The lipid transfer assay mixture contained donor vesicles (40 nmol phosphatidylcholine, 7.5 mol % of cardiolipin and 0.25 mol % glycerol tri [1-^14C]-oleate), acceptor vesicles (240 nmol phosphatidylcholine) and 5 mg BSA in a total volume of 675 μl in a 1.5 ml microcentrifuge tube. Test compounds were added dissolved in DMSO (0.13% final concentration). After 5 minutes of pre-incubation at 37° C., the reaction was started by the addition of MTP in 100 μl dialysis buffer. The reaction was stopped by the addition of 400 μl DEAE-52 cellulose pre-equilibrated in 15 mM Tris-HCI pH 7.5, 1 mM EDTA, 0.02% NaN3 (1:1, vol/vol). The mixture was agitated for 4 min and centrifuged for 2 min at maximum speed in an Eppendorf centrifuge (4° C.) to pellet the DEAE-52-bound donor vesicles. An aliquot of the supernatant containing the acceptor liposomes was counted and the [^14C]-counts were used to calculate the percent triglyceride transfer from donor to acceptor vesicles. Resulting IC50 values are enumerated in Table C.1.

Another data set has as its system HepG2 cells. Kind of data set: Quantification of the secretion of ApoB in HepG2 cells. The class given is cell-based. Particulars: 24 hours of incubation, calculated by non-linear regression analysis. The method, then: HepG2 cells were cultured in 24-well plates in MEM Rega 3 containing 10% fetal calf serum. At 70% confluency, the medium was changed and the test compound or carrier (DMSO, 0.4% final concentration) was added. After 24 hours of incubation, the medium was transferred to Eppendorf tubes and cleared by centrifugation. A sheep antibody directed against either apoB was added to the supernatant and the mixture was kept at 8° C. for 24 hours. Then, rabbit anti-sheep antibody was added and the immune complex was allowed to precipitate for 24 hours at 8° C. The immunoprecipitate was pelleted by centrifugation for 25 min at 1320 g and washed twice with a buffer containing 40 mM Mops, 40 mM NaH2PO4, 100 mM NaF, 0.2 mM DTT, 5 mM EDTA, 5 mM EGTA, 1% Triton-X-100, 0.5% sodium deoxycholate (DOC), 0.1% SDS, 0.2 μM leupeptin and 0.2 μM PMSF. Radioactivity in the pellet was quantified by liquid scintillation counting. Resulting IC50 values are enumerated in Table C. 1.

Data set [1] is described as follows: Plasma levels in a clinical trial on human volunteers. The class given is in vivo. As to conditions: for share of the total AUC, compounds 1, 2 and 3 together: one value for the three compounds combined. An excerpt: Plasma levels of compounds 1, 2 and 3 and of compound A have been measured in a clinical trial on human volunteers.
Where [2] appears, read: human volunteers, single 200 mg dose administration of compound A.

For orientation: IC50 means the concentration needed to halve the response being measured. Turning to `CCC(C)n1ncn(-c2ccc(N3CCN(c4ccc(OCC5COC(C[S+]([O-])c6nncn6C)(c6ccc(Cl)cc6)O5)cc4)CC3)cc2)c1=O` (single isomer, unassigned) [Compound 2], the results for the IC50 at Dog MTP and with HepG2 cells were 118 nM and 930 nM, respectively. Also, in data set [1] (human volunteers), the “clearance compared with compound A” value is listed as “slower than clearance of compound A”. Besides, in data set [1] (setting [2]), the “share of the total AUC, compounds 1, 2 and 3 together” value (from here on “share … 2 and 3 together”) came out at 92%.
For the molecule `CC[C@@H](C)n1ncn(-c2ccc(N3CCN(c4ccc(OC[C@@H]5CO[C@@](CSc6nncn6C)(c6ccc(Cl)cc6)O5)cc4)CC3)cc2)c1=O` [compound A, (−)-[2S-[2α,4α(S*)]]-4-[4-[4-[4-[[-2-(4-chlorophenyl)-2-[[(4-methyl-4H-1,2,4-triazol-3-yl)thio]methyl]-1,3-dioxolan-4-yl]methoxy]phenyl]-1-piperazinyl]phenyl]-2,4-dihydro-2-(1-methylpropyl)-3H-1,2,4-triazol-3-one, reference compound], the half-maximal inhibitory concentration (IC50) against Dog MTP was 7.6 nM; in the data set with HepG2 cells (Homo sapiens, HepG2, 24 h), 25 nM. Moreover, the “share of the total AUC (Area Under the Curve)” value in data set [1] (setting [2]) was 8%. The “metabolisation on passing the liver (first-pass)” value in data set [1] (human, in vivo) was “extensive metabolisation”.
For the molecule `CCC(C)n1ncn(-c2ccc(N3CCN(c4ccc(OCC5COC(C[S+]([O-])c6nncn6C)(c6ccc(Cl)cc6)O5)cc4)CC3)cc2)c1=O` (single isomer, unassigned) [Compound 3, [2S-[2α(B),4α(S*)]]-4-[4-[4-[4-[[2-(4-chlorophenyl)-2-[[(4-methyl-4H-1,2,4-traizol-3yl]sulfinyl]methyl]-1,3-dioxolan-4-yl]methoxy]phenyl]-1-piperazinyl]Phenyl-2,4-dihydro-2-(1-methylpropyl)-3H-1,2,4-traizol-3-one], the figures for the concentration for half-maximal inhibition (IC50) against Dog MTP and with HepG2 cells were 11 nM and 94 nM, respectively. Further, the “clearance compared with compound A” value in data set [1] (human volunteers) is on record as “slower than clearance of compound A”. For the same molecule, in data set [1] (setting [2]), the “share … 2 and 3 together” value is recorded as 92%.
Regarding `CCC(C)n1ncn(-c2ccc(N3CCN(c4ccc(OC[C@@H]5CO[C@@](CS(=O)(=O)c6nncn6C)(c6ccc(Cl)cc6)O5)cc4)CC3)cc2)c1=O` (relative stereo) [Compound 1, [2S-[2α,4α(S*)]]-4-[4-[4-[4-[[2-(4-chloropheny)-2-[[(4-methyl-4H-1,2,4-triazol-3-yl)sulfonyl]methyl]-1,3-dioxlan-4-yl]methoxy]phenyl]-1-piperazinyl]phenyl]-2,4-dihydro-2-(1-methylpropyl)-3H-1,2,4-triazol-3-one], the IC50 against Dog MTP is 6.2 nM; with HepG2 cells (Homo sapiens, HepG2, 24 h), 61 nM. Also, the “clearance compared with compound A” value in data set [1] (human volunteers) is given as “slower than clearance of compound A”. Also, the “share … 2 and 3 together” value in data set [1] (setting [2]) was found to be 92%.
